The nature of data set [1]: Aggregation tendency by dynamic light scattering (DLS). Type of data set: physicochemical. Particulars: for DLS count rate (kcps): 1% DMSO, potassium phosphate buffer 5 mM pH 7.4. Here is the method: Stock solutions (10 mM) of test compounds prepared in DMSO, diluted to 1 mM with DMSO and then serially diluted with potassium phosphate buffer (5 mM, pH 7.4, prefiltered before use) to give final concentrations of 1 μM and 10 μM. Final concentration of DMSO was 1% v/v. Measurements were carried out on the Malvern Instrument Zetasizer Nano ZS system equipped with a 4 mW He—Ne laser at 633 nm and detector angle of 90°. Three or more determinations of derived count rates (kilocounts per second, kcps) were obtained from each concentration of test compound, using two separately prepared stock solutions. Data collection was carried out using the software supplied with the instrument. Results are represented as mean±standard deviation. The positive control was benzyl benzoate (250 μM) which gave a count rate of 1180 kcps (±35). The vehicle (phosphate buffer, 1% DMSO) gave a reading of 14.9±0.4.

Data set [2] concerns PC3 Prostrate cancer cells. Kind of data set: Antiproliferative activity / cell viability (MTS, 72 h). Type of data set: cell-based, human. To be noted: Homo sapiens.
Method: (§4) The relative number of the live cells was determined using the CellTiter® 96 AQueous One Solution Cell Proliferation Assay (Promega). Determinations were made in duplicates or triplicates.
Data set [3] deals with MDA-MB-231 human breast cells. The data set is described as above. To be noted: Homo sapiens.
Method: as §4
Human breast cancer MDA-MB231, liver cancer HepG2 and lung fibroblast cells were purchased from ATCC (Rockville, Md.). MDA-MB231 cells and IMR-90 cells were grown in DMEM (Sigma Aldrich, Singapore) and EMEM (Sigma Aldrich, Singapore) respectively at 37° C., 5% CO2. DMEM was supplemented with 10% fetal bovine serum (Invitrogen, heat treated at 65 deg C., 30 min), 50 units/L penicillin-G and 50 μg/mL streptomycin. EMEM was supplemented with 10% fetal bovine serum (heat treated as above), 100 mg/L penicillin-G and 100 μg/mL streptomycin.
Cell viability was assessed using CellTitre 96® Aqueous One Solution (Promega, Madison, Wis.) containing the tetrazolium salt 3-(4,5-dimethylthiazol-2-yl)-5-(3-carboxymethoxyphenyl)-2-(4-sulfophenyl)-2H-tetrazolium (MTS). […] Final concentration of DMSO per well was maintained at 0.5% v/v. […] Cell viability was determined from the expression:
The plot was constrained to ≧0 and ≦100%. At least 3 independent determinations of IC50 were made using two different stock solutions of test compound.
Data set [4] deals with T1, Isoprenylcysteine carboxyl methyltransferase (Icmt) (Homo sapiens, UniProt O60725).
T1 construct: made in house; host or cells: Sf9 (Spodoptera frugiperda) insect cells; membrane preparation provided by Prof PJ Casey (Duke University / Duke-NUS)
Kind of data set: Icmt inhibition, scintillation proximity assay with BFC and [3H]SAM. Type of data set: biochemical. Here is the method: Isoprenylcysteine carboxyl methyltransferase (Icmt) was provided by Prof PJ Casey of Duke University, NC. S-Adenosylmethionine (SAM), magnesium chloride Hexahydrate (MgCl2), tartrazine, 4-(2-hydroxyethyl)-1-piperazineethanesulfonic acid (HEPES), dimethyl sulfoxide (DMSO) and dithiotreitol (DTT) were purchased from Sigma (Mo, USA). [^3H] S-Adenosylmethionine, [^3H] Biotin and Streptavidin PVT SPA Beads were purchased from PerkinElmer (Waltham, Mass.). Assays were performed in black small volume 384 well microtitre plates from PerkinElmer.
Stocks of Icmt membrane protein (30 μg/μL) stored at −80° C. were thawed at 37° C. and placed on ice. The Icmt membrane protein was diluted in assay buffer (70 mM HEPES, 100 mM NaCl, 5 mM Mg Cl2 and 3 mM DTT, pH 7.5) to a 0.03 μg/μL working concentration and added to the wells of a microtitre plate (5 μl/well). To each wells 20 μl of the reaction buffer was added. The reaction was initiated with the addition of 5 μL of substrate solution containing BFC (6 μM), SAM (3 μM) and 30 μCi/mL [^3H] SAM (all of these reagents were stored at −20° C., SAM reagents thawed on ice, BFC thawed at RT). The plate was incubated at 37° C. for 30 minutes. The reaction was stopped with the addition of 15 μL of stop solution containing SAM (150 μM) and Streptavidin SPA beads (20 mg/mL). Following overnight incubation at ambient temperature radioactivity was counted on a Microbeta Trilux™ (Perkin Elmer, Turku, Finland).
Sf9 (Spodoptera frugiperda ovarian) membranes containing recombinant Icmt were provided by Prof PJ Casey (Duke University, NC and Duke-NUS Graduate Medical School). S-Adenosylmethionine (SAM), magnesium chloride hexahydrate, tartrazine, 4-(2-hydroxyethyl)-1-piperazineethanesulfonic acid (HEPES) and dithiotreitol (DTT) were purchased from Sigma (Mo, USA). [^3H] S-Adenosylmethionine, [^3H] biotin and streptavidin PVT SPA Beads were purchased from PerkinElmer (Waltham, Mass.). Biotinylated farnesylcysteine was synthesized as described in an earlier report. Assays were performed in black 384-well microtitre plates from PerkinElmer.
A vial of Icmt membrane protein (30 μg/μL) stored at −80° C. was thawed at 37° C. and placed on ice. The protein was diluted in assay buffer (70 mM HEPES, 100 mM NaCl, 5 mM MgCl2, 3 mM DTT, pH 7.5) to 0.03 μg/μL and aliquots were added to each well (5 μL/well), followed by 20 μL of the assay buffer. The reaction was initiated by adding 5 μL of a solution containing biotinylated BFC (6 μM), SAM (3 μM) and 30 μCi/mL [^3H] SAM. These reagents were stored at −20° C. and thawed on ice (SAM, [^3H] SAM) or at room temperature (BFC). The plate was incubated at 37° C. for 30 minutes after which the reaction was quenched by adding 15 μL of a solution comprising SAM (150 μM) and streptavidin SPA beads (20 mg/mL). After overnight incubation at ambient temperature, radioactivity was counted (Microbeta Trilux™, Perkin Elmer, Turku, Finland). The degree of inhibition was assessed from the radioactivity obtained in presence of test compound compared to that obtained from the control sample […]. Two independent determinations were made for each test compound.

For data set [5], the system named is Human lung fibroblast IMR90 cells. Kind of data set: Cell viability on non-malignant cells (MTS, 72 h). Type of data set: cell-based. Here is the method:
(§1) Cell viability was determined from the expression:
(§2) The plot was constrained to ≧0 and ≦100%.
Human lung fibroblast IMR90 cells were purchased from ATCC (Rockville, Md.) and grown in Eagle's Minimal Essential Media (EMEM, Sigma Aldrich, Singapore) at 37° C., 5% CO2. […] Seeding density was maintained at 4000 cells per well.

Data set [6] is described as follows: physchem. To be noted: for solubility at 24 h: 25 °C; for solubility at 24 h / solubility at 3 h: pH 7.4, aqueous buffer, kinetic from dmso stock. Here is the method:
The turbid solution was delivered to the filter plate, agitated for a specific time period and then filtered. The concentration of dissolved compound in the filtrate was determined by uv spectroscopy and referred to pre-constructed calibration curves for solubility determination.
(§3) Determination of aqueous solubility was carried out on Multiscreen® Solubility filter plates (Millipore-MSSLBPC10) from Millipore Corporation (MA, USA). The protocol (PC2445EN00, Millipore Corporation) was followed. Briefly, various concentrations of the test compound were prepared in Universal buffer (pH 7.4)/acetonitrile/DMSO. The UV absorbances of these solutions were obtained at a pre-determined wavelength and used to construct a calibration curve for the test compound. Next, a stock solution of the test compound in DMSO was prepared at a known concentration, diluted with Universal buffer (pH 7.4), dispensed into wells in the Multiscreen Solubility filter plate, and agitated for a period of time. The suspension is then filtered, the filtrate collected and diluted with acetonitrile to give the same solvent composition used to prepare the calibration solutions. The absorbance of the diluted filtrate was then read at the predetermined wavelength and the concentration of the filtrate (taken here to be equivalent to the solubility of the test compound) was determined from the calibration curve.
as §3, with “24 hours at room temperature (25 deg C.). […]” for “a period of time.”, “was” for “is then”, “was” for “was then”, “(equivalent” for “(taken here to be equivalent”, “curve. […] LCMS determinations were made on an Agilent 1200 Series HPLC linked to a AB Sciex Instruments 3200 Q TRAP LC/MS/MS. Separations were carried out on a Phenomenex Luna column [3u, C18(2), 100A, 5×4.6 mm]. […] Quantification was based on the ratio of peak areas of the daughter ion and the mother ion (M+H), normalized against the same ratio obtained for the internal standard. The solubility determinations were carried out in triplicates or more from two different stock solutions.” for “curve.”

Data set [7] concerns Human hepatocellular carcinoma HepG2 cells. Nature of the data set: Cell viability (MTS, 72 h). Type of data set: cell-based. Particulars: HepG2, Table 6, mean (SD), read-out: IC50 (μM) HepG2. Here is the method:
as §1, §2
Human hepatocellular carcinoma HepG2 and human pancreatic cancer MIA PACA II cells were obtained from ATCC (Rockville, Md.). They were grown in DMEM (high glucose, Invitrogen) supplemented with 10% FBS, 50 μg/mL penicillin and 50 μg/mL streptomycin, 37° C., 5% CO2 until they reached 80-90% confluency, after which they were subcultured. Passage numbers were kept within 7-14 passages for both cell types.

Data set [8] is described as follows: Parallel Artificial Membrane Permeability Assay (PAMPA). Particulars: 500 uM stock, similar conditions. Here is the method: Briefly, determinations were carried out on MultiScreen-IP PAMPA assay (donor) plates (MAIPNTR10) and MultiScreen Receiver Plates (MATRNPS50) from Millipore Corporation (USA) with 1% lecithin (L-α-phosphatidylcholine from lyophilized powder of egg yolk, Sigma Aldrich, USA) in dodecane (ReagentPlus®, Sigma Aldrich, USA) as lipid barrier. 5 μL of 1% lecithin in dodecane was dispensed into the wells of the donor plates. […] The mobile phase was Milli-Q water (0.1% formic acid) and acetonitrile (0.1% formic acid), run on gradient.
Pe was obtained from Equation 1:
[formula] Where VA and VD are the volumes of acceptor (cm^3) and donor (cm^3) wells respectively, A is the area of the surface area of the membrane (0.24 cm^2), t is the permeation time (s); S is the fraction of sample remaining in the donor and acceptor wells after permeation time and is determined from Equation 2, CA and CD are the concentrations (μM) of test/reference compound in acceptor and donor wells respectively.
The Pe of each compound was obtained from at least 3 separate experiments using no less than 2 different stock solutions. For each independent determination, triplicates (3 wells) were run for each compound.
A general note: In PAMPA a lipid-coated filter parts donor from acceptor wells.

Setting [9] is: PC-3M, Table 3, 72 h, mean (SD), read-out: IC50 PC3.
[10] abbreviates: MDA-MB-231, 72 h, read-out: IC50 MDA-MB-231 (μM).
Setting [11] is: MDA-MB-231, 72 h, read-out: IC50MDA-MB-231 (μM).
The mark [12] stands for this setting: Table 3, mean of two or more determinations (SD), read-out: IC50 Icmt.
Setting [13] is: IMR-90, further testing, 72 h, mean (SD), read-out: IC50 IMR90.
The mark [14] stands for this setting: MDA-MB-231, read-out: IC50 (μM) MDA MB 231.

SMILES strings stand for the structures. Converted amounts (≈) assume the structure as drawn. Read-outs that look alike come from different tables or passages of the source.

The record followed here is patent US9422238B2, “ICMT inhibitors” (National University of Singapore, priority 2012, dated 2016).

Usually solubility stands for the concentration that dissolves in the medium under given conditions.

T1 sequence (O60725 whole entry, species assumed): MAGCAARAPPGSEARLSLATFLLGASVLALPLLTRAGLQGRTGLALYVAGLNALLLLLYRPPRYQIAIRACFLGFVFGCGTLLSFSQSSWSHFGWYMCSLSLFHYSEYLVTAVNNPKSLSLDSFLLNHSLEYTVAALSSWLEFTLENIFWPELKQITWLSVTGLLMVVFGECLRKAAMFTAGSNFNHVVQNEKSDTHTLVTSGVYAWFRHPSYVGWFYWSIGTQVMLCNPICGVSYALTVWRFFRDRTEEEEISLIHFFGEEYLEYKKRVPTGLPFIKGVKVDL

In the case of `CCCCCCCCn1cc(CN(CC)CC)c2cc(-c3cncnc3)ccc21` [Compound 8-15, Diethyl-(1-octyl-5-pyrimidin-5-yl-1H-indol-3ylmethyl)-amine], the “DLS count rate (kcps)” value is 20.4 kcps in data set [1] (1 μM) and 28.9 kcps in data set [1] (10 μM). The IC50 in data set [2] (setting [9]) was 8.32 µM; in data set [3] (setting [10]) it was 13.2 µM; in data set [3] (setting [11]) it was 9 µM; in data set [4] (setting [12]), 1.58 µM; in data set [4] (further testing, mean (SD), read-out: IC50 Icmt), 1.6 µM; in data set [5] (setting [13]), 9.84 µM. Besides, the concentration in solution in data set [6] (solubility at 24 h) came to 272 µM (≈ 107 µg/mL). In addition, the “Solubility (μM)” value in data set [6] (24 h, pH 7.4) was 271.56 (6.63) μM. In data set [6], this compound displayed a solubility at 3 h of 266 µM (≈ 105 µg/mL).
Take `CCCCCCCCn1cc(CN(CC)CC)c2cc(-c3cnc(N(C)C)nc3)ccc21`: in data set [6], the solubility at 24 h was found to be 24.9 µM (≈ 10.8 µg/mL) and the concentration in solution (solubility at 3 h) was 25.3 µM (≈ 11 µg/mL).
Turning to `CCCCCCCCn1cc(CN(CC)CC)c2cc(-c3ccc(S(=O)(=O)NC)cc3)ccc21` [Compound 8-24, 4-(3-Diethylaminomethyl-1-octyl-1H-indol-5-yl)-N-methyl-benzensulfonamide], the IC50 in data set [3] (setting [11]) worked out at 8.52 µM; in data set [3] (setting [14]) it was 8.7 µM; in data set [7], 4.76 µM; in data set [4] (setting [12]), 1.71 µM.
For `CCCCCCCCn1cc(CN(CC)CC)c2cc(-c3cccnc3)ccc21` [Compound 8-7, Diethyl-(1-octyl-5-pyridin-3-yl-1H-indol-3ylmethyl)-amine], the “DLS count rate (kcps)” value in data set [1] (1 μM) is reported as 16.8 kcps; in data set [1] (10 μM) it was 16.5 kcps. The IC50 in data set [2] (setting [9]) was 5.84 µM; in data set [3] (setting [10]), 6.01 µM; in data set [3] (setting [11]) it was 5.5 µM; in data set [4], 1.8 µM; in data set [4] (setting [12]), 1.75 µM; in data set [5] (setting [13]), 5.52 µM. For the same compound, the “Aqueous Solubility (pH 7.4) 24 hours” value in data set [6] (24 h, pH 7.4) is given as 244.8 (9.7) μM. Also, the “Solubility (μM)” value in data set [6] (24 h, pH 7.4) is listed as 244.8 (9.7) μM. Moreover, in data set [6], the concentration in solution (solubility at 3 h) came to 250 µM (≈ 97.8 µg/mL).
On to `CCCCCCCCn1cc(CN(CC)CC)c2cc(-c3ccc(S(C)(=O)=O)cc3)ccc21` [Compound 8-10, Diethyl-[5(4-methanesulfonyl-phenyl)-1-octyl-1H-indol-3ylmethyl]-amine], for which the IC50 is 4.74 µM in data set [2] (setting [9]); 4.74 µM in data set [2] (Table 6, from earlier table, read-out: IC50 (μM) PC3); 5.56 µM in data set [3] (setting [11]); 5.56 µM in data set [3] (setting [14]); 3.44 µM in data set [7]; 1.72 µM in data set [4] (setting [12]). The IC50 in data set [5] (IMR-90, Table 6, mean (SD), read-out: IC50 (μM) IMR90) is 5.52 µM.
Regarding `C=C[C@H]1C[N@@]2CC[C@H]1C[C@@H]2[C@@H](O)c1ccnc2ccc(OC)cc12` [quinidine, reference compound], the “Pe sequence of standard compounds” value in data set [8] was “verapamil>quinidine>caffeine”.
The same measure, in the same setting: the value for `Cn1c(=O)c2c(ncn2C)n(C)c1=O` [caffeine, reference compound] was “verapamil>quinidine>caffeine”.
In turn, `O=C(OCc1ccccc1)c1ccccc1` [benzyl benzoate, reference compound] gave a DLS count rate in data set [1] (positive control, 250 μM) of 1180 kcps.
